Experimental data reported in EPA's CvTdb concentration-time database (doi:10.1093/toxsci/kfy020).

How the values were obtained:
Test in all cases: concentration in plasma after dosing
rat [1] = conditions: male, Sprague-Dawley
rat [2] = conditions: dosed: Propamocarb hydrochloride, 5.0000000000 mg/kg, oral, male, Sprague-Dawley
rat [3] = conditions: dosed: Propamocarb hydrochloride, 5.0000000000 mg/kg, oral, male, Sprague-Dawley; remark: listed apart in the source
rat [4] = conditions: dosed: Propamocarb hydrochloride, 5.0000000000 mg/kg, oral, male, Sprague-Dawley; remark: listed apart in the source
rat [5] = conditions: dosed: Propamocarb hydrochloride, 1.0000000000 mg/kg, iv, male, Sprague-Dawley
rat [6] = conditions: dosed: Propamocarb hydrochloride, 1.0000000000 mg/kg, iv, male, Sprague-Dawley; remark: listed apart in the source
rat [7] = conditions: 8 h; dosed: Dimethenamid; 5.0000000000 mg/kg; oral; male; Sprague-Dawley
rat [8] = conditions: dosed: Dimethenamid, 1.0000000000 mg/kg, iv, male, Sprague-Dawley
rat [9] = conditions: dosed: Dimethenamid, 5.0000000000 mg/kg, oral, male, Sprague-Dawley
rat [10] = conditions: dosed: Dimethenamid, 1.0000000000 mg/kg, iv, male, Sprague-Dawley; remark: listed apart in the source
rat [11] = conditions: dosed: Dimethenamid, 5.0000000000 mg/kg, oral, male, Sprague-Dawley; remark: listed apart in the source
rat [12] = conditions: dosed: S-Bioallethrin, 0.8000000000 mg/kg, iv, male, Sprague-Dawley
rat [13] = conditions: dosed: S-Bioallethrin, 4.0000000000 mg/kg, oral, male, Sprague-Dawley
rat [14] = conditions: dosed: S-Bioallethrin, 0.8000000000 mg/kg, iv, male, Sprague-Dawley; remark: listed apart in the source
rat [15] = conditions: dosed: S-Bioallethrin, 0.8000000000 mg/kg, iv, male, Sprague-Dawley; remark: listed apart in the source
rat [16] = conditions: dosed: Imazalil, 1.0000000000 mg/kg, iv, male, Sprague-Dawley
rat [17] = conditions: dosed: Imazalil, 1.0000000000 mg/kg, iv, male, Sprague-Dawley; remark: listed apart in the source
rat [18] = conditions: dosed: Bisphenol A, 0.6000000000 mg/kg, iv, male, Sprague-Dawley
rat [19] = conditions: dosed: Bisphenol A, 0.6000000000 mg/kg, iv, male, Sprague-Dawley; remark: listed apart in the source
rat [20] = conditions: dosed: Etoxazole, 2.0000000000 mg/kg, oral, male, Sprague-Dawley
rat [21] = conditions: dosed: Etoxazole, 2.0000000000 mg/kg, oral, male, Sprague-Dawley; remark: listed apart in the source
rat [22] = conditions: dosed: Etoxazole, 0.4000000000 mg/kg, iv, male, Sprague-Dawley
rat [23] = conditions: dosed: Etoxazole, 2.0000000000 mg/kg, oral, male, Sprague-Dawley; remark: listed apart in the source
rat [24] = conditions: dosed: Etoxazole, 0.4000000000 mg/kg, iv, male, Sprague-Dawley; remark: listed apart in the source
rat [25] = conditions: dosed: Etoxazole, 2.0000000000 mg/kg, oral, male, Sprague-Dawley; remark: listed apart in the source
rat [26] = conditions: dosed: Etoxazole, 0.4000000000 mg/kg, iv, male, Sprague-Dawley; remark: listed apart in the source

CCCOC(=O)NCCCN(C)C.Cl [Propamocarb hydrochloride]
concentration in plasma [ng/mL], rat [1], dosed: Propamocarb hydrochloride
Conditions | 0.25 h | 0.5 h | 1 h | 2 h | 5 min
1.0000000000 mg/kg, iv | 57.8 | 26.2 | 9.6 | 1 | 134
5.0000000000 mg/kg, oral | 8.1 | 4.9 | 1.6 | – | –

concentration in plasma [ng/mL]
Conditions | rat [2] | rat [3] | rat [4] | rat [5] | rat [6]
0.25 h | 2.1 | 1.1 | 3.5 | 69.3 | 62.1
0.5 h | 1.5 | 0.7 | 1.7 | 35.3 | 25.5
1 h | 0.43 | 0.1 | 0.4 | 11 | 8.7
2 h | – | – | – | 1.7 | 0.5
5 min | – | – | – | 108 | 103

COCC(C)N(C(=O)CCl)c1c(C)csc1C (configuration not stated) [Dimethenamid]
Conditions | concentration in plasma [ng/mL]
rat [7] | 287

concentration in plasma [ng/mL]
Conditions | rat [8] | rat [9] | rat [10] | rat [11]
0.25 h | – | 1.8 | – | 0.6
0.5 h | 20.9 | 1.4 | 14.9 | 0.5
1 h | 7.4 | 0.6 | 6.2 | –
2 h | 2.1 | 0.7 | 1.9 | 0.6
4 h | 0.8 | 1 | 0.6 | 0.6
5 min | 193 | – | 91.9 | –
8 h | – | 0.5 | – | 0.2
10 min | 110 | – | 38.1 | –
24 h | – | 0.2 | – | –
48 h | – | 0.3 | – | –
72 h | – | 0.3 | – | –

rat [1], dosed: Dimethenamid
Conditions | concentration in plasma [ng/mL]
0.25 h, 5.0000000000 mg/kg, oral | 5.3
0.5 h, 1.0000000000 mg/kg, iv | 19.3
0.5 h, 5.0000000000 mg/kg, oral | 2
1 h, 1.0000000000 mg/kg, iv | 7
1 h, 5.0000000000 mg/kg, oral | 1.3
2 h, 1.0000000000 mg/kg, iv | 1.4
2 h, 5.0000000000 mg/kg, oral | 1.9
4 h, 1.0000000000 mg/kg, iv | 0.8
4 h, 5.0000000000 mg/kg, oral | 1.2
5 min, 1.0000000000 mg/kg, iv | 115
8 h, 1.0000000000 mg/kg, iv | 0.3
8 h, 5.0000000000 mg/kg, oral | 0.5
10 min, 1.0000000000 mg/kg, iv | 60.7
12 h, 5.0000000000 mg/kg, oral | 0.3
24 h, 5.0000000000 mg/kg, oral | 0.3
48 h, 5.0000000000 mg/kg, oral | 0.3
72 h, 5.0000000000 mg/kg, oral | 0.5

C=CCC1=C(C)[C@@H](OC(=O)[C@@H]2[C@@H](C=C(C)C)C2(C)C)CC1=O [S-Bioallethrin]
concentration in plasma [ng/mL], rat [1], dosed: S-Bioallethrin
Conditions | 0.5 h | 1 h | 2 h | 4 h | 5 min
0.8000000000 mg/kg, iv | 2.7 | 3 | 3.4 | 1.6 | 19.2
4.0000000000 mg/kg, oral | 1.6 | 6 | 1.2 | – | –

concentration in plasma [ng/mL]
Conditions | 0.25 h | 0.5 h | 1 h | 2 h | 4 h | 5 min | 8 h | 10 min
rat [12] | – | 13.1 | – | 6.7 | 1.9 | 60.4 | – | 43.5
rat [13] | 2.5 | 2.2 | 4.9 | – | – | – | – | –
rat [14] | – | 31.3 | 11 | 2.5 | 1.6 | – | – | 30.2
rat [15] | – | 24.5 | 5.2 | 6.9 | 2.9 | – | 1.5 | 76.7

C=CCOC(Cn1ccnc1)c1ccc(Cl)cc1Cl (configuration not stated) [Imazalil]
concentration in plasma [ng/mL], rat [1], dosed: Imazalil
Conditions | 0.25 h | 0.5 h | 1 h | 2 h | 4 h | 5 min | 10 min
1.0000000000 mg/kg, iv | – | 25.6 | 20.7 | 7.2 | 3.6 | 139 | 63.9
5.0000000000 mg/kg, oral | 9.7 | 11.4 | 7.9 | 1 | – | – | –

concentration in plasma [ng/mL]
Conditions | 0.5 h | 1 h | 2 h | 4 h | 5 min | 10 min
rat [16] | 33.3 | 22 | 6.8 | 5.3 | 162 | 71.5
rat [17] | 23.8 | 12.2 | 6.6 | 3.4 | 125 | 73.5

CC(C)(c1ccc(O)cc1)c1ccc(O)cc1 [Bisphenol A]
concentration in plasma [ng/mL]
Conditions | 0.5 h | 1 h | 5 min | 10 min
rat [18] | 94.3 | 30.7 | 310 | 151
rat [19] | 60.5 | 34.5 | 299 | 189

rat [1], dosed: Bisphenol A, 0.6000000000 mg/kg, iv
Conditions | concentration in plasma [ng/mL]
0.5 h | 85.6
1 h | 29.2
5 min | 392
10 min | 302

CCOc1cc(C(C)(C)C)ccc1C1COC(c2c(F)cccc2F)=N1 (configuration not stated) [Etoxazole]
concentration in plasma [ng/mL]
Conditions | rat [20] | rat [21] | rat [22] | rat [23] | rat [24] | rat [25] | rat [26]
0.25 h | 14.6 | 9.12 | – | 15.8 | – | 15.1 | –
0.5 h | 23 | 16.8 | 43.6 | 18.5 | 60 | 22.4 | 20.5
1 h | 33.7 | 25.3 | 15.7 | 23.8 | 18.9 | 29.7 | 7.3
2 h | 24.3 | 31 | 4.19 | 7.62 | 4.7 | 31.5 | 2.78
4 h | 11.9 | 9.37 | 1.89 | 2.16 | 0.86 | 13.6 | 1.69
5 min | – | – | 126 | – | 142 | – | 78.2
8 h | 10.3 | – | 0.28 | 4.85 | 0.54 | 5.34 | 0.69
10 min | – | – | 72.5 | – | 66.8 | – | 50.2
12 h | 1.45 | – | – | 1.6 | – | 1 | 0.56
24 h | 0.53 | – | – | 0.18 | 0.36 | 0.46 | 0.3
48 h | 0.12 | – | – | – | – | 0.2 | 0.14
72 h | 0.13 | – | – | – | – | 0.16 | –

rat [1], dosed: Etoxazole
Conditions | concentration in plasma [ng/mL]
0.25 h, 2.0000000000 mg/kg, oral | 36
0.5 h, 0.4000000000 mg/kg, iv | 31.1
0.5 h, 2.0000000000 mg/kg, oral | 41.2
1 h, 0.4000000000 mg/kg, iv | 14
1 h, 2.0000000000 mg/kg, oral | 49.5
2 h, 0.4000000000 mg/kg, iv | 3.62
2 h, 2.0000000000 mg/kg, oral | 23.7
4 h, 0.4000000000 mg/kg, iv | 1.53
4 h, 2.0000000000 mg/kg, oral | 8.72
5 min, 0.4000000000 mg/kg, iv | 145
8 h, 0.4000000000 mg/kg, iv | 0.14
8 h, 2.0000000000 mg/kg, oral | 11.7
10 min, 0.4000000000 mg/kg, iv | 86.3
12 h, 2.0000000000 mg/kg, oral | 1.84
24 h, 2.0000000000 mg/kg, oral | 0.61
48 h, 2.0000000000 mg/kg, oral | 0.15
72 h, 2.0000000000 mg/kg, oral | 0.11
